Reference: patent publication US20210070748A1, “INHIBITORS OF BRUTONS TYROSINE KINASE” (Pharmacyclics LLC, priority 2015, published 2021)

Assays:
Format in all cases: biochemical
BTK-WT = biological target: T1, BTK-WT (Homo sapiens, UniProt Q06187); assay: Btk in vitro inhibitory activity (one of Method A TR-FRET, Method B electrophoretic mobility shift, Method C radiometric filter binding); settings: D-compounds panel data; read-out: IC50 BTK-WT
T1 construct: purified from insect cells as a full-length construct containing an N-terminal 6X-His tag; His6 (N); made in house; host or cells: insect cells (baculovirus Sf21 in Method B)
T1 sequence (Q06187 whole entry): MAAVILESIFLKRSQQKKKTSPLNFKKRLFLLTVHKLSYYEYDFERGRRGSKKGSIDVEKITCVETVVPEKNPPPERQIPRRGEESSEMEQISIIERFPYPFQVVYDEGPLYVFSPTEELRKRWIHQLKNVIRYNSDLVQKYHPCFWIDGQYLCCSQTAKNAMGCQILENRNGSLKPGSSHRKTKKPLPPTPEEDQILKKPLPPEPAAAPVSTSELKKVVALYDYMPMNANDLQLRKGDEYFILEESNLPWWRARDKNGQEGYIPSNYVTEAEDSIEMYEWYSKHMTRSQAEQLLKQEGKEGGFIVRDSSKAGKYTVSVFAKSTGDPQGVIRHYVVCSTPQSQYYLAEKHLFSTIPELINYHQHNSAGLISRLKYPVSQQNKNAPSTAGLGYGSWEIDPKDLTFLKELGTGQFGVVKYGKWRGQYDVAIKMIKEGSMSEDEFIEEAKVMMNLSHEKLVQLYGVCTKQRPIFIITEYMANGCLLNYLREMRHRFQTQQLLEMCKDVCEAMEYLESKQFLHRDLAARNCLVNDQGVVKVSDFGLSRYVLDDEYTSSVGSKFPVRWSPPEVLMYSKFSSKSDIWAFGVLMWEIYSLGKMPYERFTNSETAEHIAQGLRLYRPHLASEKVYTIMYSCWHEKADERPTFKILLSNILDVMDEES

ITK = biological target: T2, ITK (Homo sapiens, UniProt Q08881); assay: Inhibition of a panel of kinases, in vitro HotSpot kinase assay: ITK; settings: D-compounds panel data; 1 μM ATP
T2 sequence (Q08881 1-620): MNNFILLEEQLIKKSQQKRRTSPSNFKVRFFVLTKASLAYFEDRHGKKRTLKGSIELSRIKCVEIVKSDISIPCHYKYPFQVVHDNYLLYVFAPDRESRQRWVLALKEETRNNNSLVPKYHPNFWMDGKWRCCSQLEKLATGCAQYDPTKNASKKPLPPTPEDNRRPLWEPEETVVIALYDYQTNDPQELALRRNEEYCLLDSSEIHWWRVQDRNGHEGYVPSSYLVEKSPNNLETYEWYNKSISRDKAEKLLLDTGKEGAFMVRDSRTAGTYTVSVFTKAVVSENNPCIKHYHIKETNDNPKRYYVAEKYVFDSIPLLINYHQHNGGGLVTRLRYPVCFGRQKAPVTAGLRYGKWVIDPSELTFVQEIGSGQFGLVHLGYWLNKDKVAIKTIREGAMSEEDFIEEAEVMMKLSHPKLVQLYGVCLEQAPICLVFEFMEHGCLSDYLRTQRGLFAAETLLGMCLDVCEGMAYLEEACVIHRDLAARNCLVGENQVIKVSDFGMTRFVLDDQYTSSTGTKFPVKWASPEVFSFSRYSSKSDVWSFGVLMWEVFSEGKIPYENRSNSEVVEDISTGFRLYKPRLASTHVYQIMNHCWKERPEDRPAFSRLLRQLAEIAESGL
Protocol: (§1) The degree of inhibition of a panel of kinases is determined using the in vitro HotSpot kinase assay (purified enzymes, ^33P-ATP, an appropriate substrate and 1 μM ATP).

SRC = SRC (Homo sapiens, UniProt P12931); assay: Inhibition of a panel of kinases, in vitro HotSpot kinase assay: SRC; settings: D-compounds panel data; 1 μM ATP
SRC, sequence (P12931 whole entry): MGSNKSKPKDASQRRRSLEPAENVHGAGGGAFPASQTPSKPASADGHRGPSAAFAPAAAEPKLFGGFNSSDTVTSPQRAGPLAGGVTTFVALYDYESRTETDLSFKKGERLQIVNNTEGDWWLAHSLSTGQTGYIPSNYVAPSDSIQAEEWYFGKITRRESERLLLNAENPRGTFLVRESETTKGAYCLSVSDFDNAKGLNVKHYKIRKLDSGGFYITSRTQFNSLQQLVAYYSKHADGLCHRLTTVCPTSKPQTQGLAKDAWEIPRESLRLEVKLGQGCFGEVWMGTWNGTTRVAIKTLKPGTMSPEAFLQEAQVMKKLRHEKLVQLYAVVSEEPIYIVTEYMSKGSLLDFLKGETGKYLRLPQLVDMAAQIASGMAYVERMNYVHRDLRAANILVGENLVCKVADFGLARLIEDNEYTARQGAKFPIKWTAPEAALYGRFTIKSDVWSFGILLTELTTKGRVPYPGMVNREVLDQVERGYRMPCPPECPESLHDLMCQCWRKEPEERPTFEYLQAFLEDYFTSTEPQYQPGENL
Protocol: as §1

Compound | IC50 (BTK-WT) | IC50 (ITK) | IC50 (SRC)
Cn1cc(Nc2nc(N3CCC[C@@H](n4ccc5cc(C6CC6)ncc5c4=O)C3)cnc2C(N)=O)cn1 [Example D-225, 5-[(3R)-3-(6-cyclopropyl-1-oxo-1,2-dihydro-2,7-naphthyridin-2-yl)piperidin-1-yl]-3-[(1-methyl-1H-pyrazol-4-yl)amino]pyrazine-2-carboxamide] | ≤ 10 nM | 100 to 1000 nM | 10 to 100 nM
C[C@@H]1[C@H](NC(=O)c2ccc3scnc3c2)CCCN1c1cnc(C(N)=O)c(Nc2ccc(N3CCN(C)CC3)cc2)n1 [Example D-226, N-[(2R,3R)-1-(5-carbamoyl-6-{[4-(4-methylpiperazin-1-yl)phenyl]amino}pyrazin-2-yl)-2-methylpiperidin-3-yl]-1,3-benzothiazole-5-carboxamide] | ≤ 10 nM | 10 to 100 nM | ≤ 10 nM
C[C@@H]1[C@H](NC(=O)c2ccc(C(C)(C)C)s2)CCCN1c1cnc(C(N)=O)c(Nc2cnn(C)c2)n1 [Example D-229, 5-[(2R,3R)-3-(5-tert-butylthiophene-2-amido)-2-methylpiperidin-1-yl]-3-[(1-methyl-1H-pyrazol-4-yl)amino]pyrazine-2-carboxamide] | ≤ 10 nM | 1000 to 10000 nM | 100 to 1000 nM
C[C@@H]1[C@H](NC(=O)c2ccc(S(F)(F)(F)(F)F)cc2)CCCN1c1cnc(C(N)=O)c(Nc2cnn(C)c2)n1 [Example D-230, 3-[(1-methyl-1H-pyrazol-4-yl)amino]-5-[(2R,3R)-2-methyl-3-[4-(pentafluoro-λ^6-sulfanyl)benzamido]piperidin-1-yl]pyrazine-2-carboxamide] | ≤ 10 nM | 1000 to 10000 nM | 100 to 1000 nM
COc1cc(C(=O)N[C@@H]2CCCN(c3cnc(C(N)=O)c(Nc4cnn(C)c4)n3)[C@@H]2C)ccc1C1CC1 [Example D-231, 5-[(2R,3R)-3-(4-cyclopropyl-3-methoxybenzamido)-2-methylpiperidin-1-yl]-3-[(1-methyl-1H-pyrazol-4-yl)amino]pyrazine-2-carboxamide] | ≤ 10 nM | 100 to 1000 nM | 10 to 100 nM
Cc1ccc(C(=O)N[C@@H]2CCCN(c3cnc(C(N)=O)c(Nc4cnn(C)c4)n3)[C@@H]2C)cc1 [Example D-232, 3-[(1-methyl-1H-pyrazol-4-yl)amino]-5-[(2R,3R)-2-methyl-3-(4-methylbenzamido)piperidin-1-yl]pyrazine-2-carboxamide] | ≤ 10 nM | 100 to 1000 nM | 10 to 100 nM
C[C@@H]1[C@H](NC(=O)c2ccc(SC(F)(F)F)cc2)CCCN1c1cnc(C(N)=O)c(Nc2ccc(N3CCN(C)CC3)cc2)n1 [Example D-233, 5-[(2R,3R)-2-methyl-3-{4-[(trifluoromethyl)sulfanyl]benzamido}piperidin-1-yl]-3-{[4-(4-methylpiperazin-1-yl)phenyl]amino}pyrazine-2-carboxamide] | ≤ 10 nM | 100 to 1000 nM | 10 to 100 nM
C[C@@H]1[C@H](NC(=O)c2ccc3c(cnn3C)c2)CCCN1c1cnc(C(N)=O)c(Nc2ccc(N3CCN(C)CC3)cc2)n1 [Example D-234, N-[(2R,3R)-1-(5-carbamoyl-6-{[4-(4-methylpiperazin-1-yl)phenyl]amino}pyrazin-2-yl)-2-methylpiperidin-3-yl]-1-methyl-1H-indazole-5-carboxamide] | ≤ 10 nM | 10 to 100 nM | 10 to 100 nM
C[C@@H]1[C@H](NC(=O)c2ccc(C3(O)CC3)cc2)CCCN1c1cnc(C(N)=O)c(Nc2cnn(C)c2)n1 [Example D-235, 5-[(2R,3R)-3-[4-(1-hydroxycyclopropyl)benzamido]-2-methylpiperidin-1-yl]-3-[(1-methyl-1H-pyrazol-4-yl)amino]pyrazine-2-carboxamide] | ≤ 10 nM | 100 to 1000 nM | 10 to 100 nM
C[C@H]1CC[C@@H](NC(=O)c2ccc(C(C)(C)O)cc2)CN1c1cnc(C(N)=O)c(Nc2cnn(C)c2)n1 [Example D-236, 5-[(2S,5R)-5-[4-(2-hydroxypropan-2-yl)benzamido]-2-methylpiperidin-1-yl]-3-[(1-methyl-1H-pyrazol-4-yl)amino]pyrazine-2-carboxamide] | ≤ 10 nM | 100 to 1000 nM | 10 to 100 nM
C[C@@H]1[C@H](NC(=O)c2ccc3scnc3c2)CCCN1c1cnc(C(N)=O)c(Nc2cnn(C)c2)n1 [Example D-237, N-[(2R,3R)-1-{5-carbamoyl-6-[(1-methyl-1H-pyrazol-4-yl)amino]pyrazin-2-yl}-2-methylpiperidin-3-yl]-1,3-benzothiazole-5-carboxamide] | ≤ 10 nM | 100 to 1000 nM | 10 to 100 nM
Cc1nc2cc(C(=O)N[C@@H]3CCCN(c4cnc(C(N)=O)c(Nc5cnn(C)c5)n4)[C@@H]3C)ccc2o1 [Example D-238, N-[(2R,3R)-1-{5-carbamoyl-6-[(1-methyl-1H-pyrazol-4-yl)amino]pyrazin-2-yl}-2-methylpiperidin-3-yl]-2-methyl-1,3-benzoxazole-5-carboxamide] | ≤ 10 nM | 100 to 1000 nM | 10 to 100 nM

The remaining lines, values ahead:

IC50 (BTK-WT) | IC50 (ITK) | IC50 (SRC) | Compound
≤ 10 nM | 10 to 100 nM | ≤ 10 nM | C[C@@H]1[C@H](NC(=O)c2ccc(S(C)(=O)=O)cc2)CCCN1c1cnc(C(N)=O)c(Nc2ccc(N3CCN(C)CC3)cc2)n1 [Example D-227, 5-[(2R,3R)-3-(4-methanesulfonylbenzamido)-2-methylpiperidin-1-yl]-3-{[4-(4-methylpiperazin-1-yl)phenyl]amino}pyrazine-2-carboxamide]
≤ 10 nM | 100 to 1000 nM | 10 to 100 nM | C[C@@H]1[C@H](NC(=O)c2ccc(C3(C)COC3)cc2)CCCN1c1cnc(C(N)=O)c(Nc2cnn(C)c2)n1 [Example D-228, 3-[(1-methyl-1H-pyrazol-4-yl)amino]-5-[(2R,3R)-2-methyl-3-[4-(3-methyloxetan-3-yl)benzamido]piperidin-1-yl]pyrazine-2-carboxamide]
≤ 10 nM | 100 to 1000 nM | 10 to 100 nM | C[C@@H]1[C@H](NC(=O)c2cnc(C(C)(C)C)s2)CCCN1c1cnc(C(N)=O)c(Nc2cnn(C)c2)n1 [Example D-239, 5-[(2R,3R)-3-(2-tert-butyl-1,3-thiazole-5-amido)-2-methylpiperidin-1-yl]-3-[(1-methyl-1H-pyrazol-4-yl)amino]pyrazine-2-carboxamide]
≤ 10 nM | 100 to 1000 nM | 100 to 1000 nM | C[C@@H]1[C@H](NC(=O)c2ccc(C(O)(C(F)(F)F)C(F)(F)F)cc2)CCCN1c1cnc(C(N)=O)c(Nc2cnn(C)c2)n1 [Example D-240, 5-[(2R,3R)-3-[4-(1,1,1,3,3,3-hexafluoro-2-hydroxypropan-2-yl)benzamido]-2-methylpiperidin-1-yl]-3-[(1-methyl-1H-pyrazol-4-yl)amino]pyrazine-2-carboxamide]
≤ 10 nM | 1000 to 10000 nM | 10 to 100 nM | C[C@@H]1[C@H](NC(=O)c2ccc(SC(F)(F)F)cc2)CCCN1c1cnc(C(N)=O)c(Nc2cnn(C)c2)n1 [Example D-241, 3-[(1-methyl-1H-pyrazol-4-yl)amino]-5-[(2R,3R)-2-methyl-3-{4-[(trifluoromethyl)sulfanyl]benzamido}piperidin-1-yl]pyrazine-2-carboxamide]
≤ 10 nM | 100 to 1000 nM | 10 to 100 nM | Cc1nc2cc(C(=O)N[C@@H]3CCCN(c4cnc(C(N)=O)c(Nc5cnn(C)c5)n4)[C@@H]3C)ccc2s1 [Example D-242, N-[(2R,3R)-1-{5-carbamoyl-6-[(1-methyl-1H-pyrazol-4-yl)amino]pyrazin-2-yl}-2-methylpiperidin-3-yl]-2-methyl-1,3-benzothiazole-5-carboxamide]
